≈ marks a conversion by molar mass, not a printed value. Read-outs that look alike come from different tables or passages of the source. Starred links: 1 amine or outer side, 2 acyl side, 3 side chain; linkers in the order of their positions; H or OH if unused. Positions of bridges follow the written chain, without caps; N, C: chain ends. Residues, ends and D or L forms follow the SMILES beside them. *: point of attachment. C20 diacid = O=C(O)CCCCCCCCCCCCCCCCCCC(=O)*; C18 diacid = O=C(O)CCCCCCCCCCCCCCCCC(=O)*; γGlu = O=C(O)[C@H](CCC(=O)[*:2])N[*:1]
Legend:
[1] = Assay (IV) determination of solubility; assay type: physicochemical
Summary of the method: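 Polypeptide in water (~500 nmol/ml stock) was mixed 1:1 with 100 mM buffers from pH 3.0 to 8.0 (glycylglycine pH 3.0–5.0; bistrispropane pH 6.0–8.0). After 18 hours at room temperature, samples were centrifuged and the polypeptide remaining in solution was quantified by HPLC.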

[2] = biological target: T1, human calcitonin receptor (Homo sapiens, UniProt P30988); experiment: Assay (II)a functional CRE-luciferase assay, human calcitonin receptor; assay type: cell-based; conditions: Table 7; human calcitonin (CTa) receptor
T1 construct: expressed in transfected cells; host or cells: BHK570
T1 sequence (P30988 25-474): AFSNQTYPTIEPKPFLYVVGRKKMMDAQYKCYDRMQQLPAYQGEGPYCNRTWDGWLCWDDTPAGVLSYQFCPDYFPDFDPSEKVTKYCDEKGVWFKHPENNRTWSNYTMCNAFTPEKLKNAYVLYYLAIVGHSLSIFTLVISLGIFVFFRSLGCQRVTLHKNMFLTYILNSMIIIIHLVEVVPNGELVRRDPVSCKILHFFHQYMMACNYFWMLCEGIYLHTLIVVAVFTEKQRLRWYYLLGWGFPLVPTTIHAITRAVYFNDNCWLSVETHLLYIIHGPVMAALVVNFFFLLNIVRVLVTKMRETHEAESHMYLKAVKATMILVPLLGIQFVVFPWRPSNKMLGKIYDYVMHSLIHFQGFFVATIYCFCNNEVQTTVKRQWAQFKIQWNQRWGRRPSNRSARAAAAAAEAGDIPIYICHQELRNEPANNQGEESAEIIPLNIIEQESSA

[3] = biological target: T2, human amylin receptor (amylin 3(a) receptor: human calcitonin receptor + RAMP-3) (Homo sapiens, UniProt O60896+P30988); experiment: Assay (II)a functional CRE-luciferase assay, human amylin receptor; assay type: cell-based; conditions: Table 2; BHK amylin 3(a)-receptor/CRE-luc cells
T2 construct: expressed in transfected cells; host or cells: BHK570
T2 sequence (P30988 25-474): T1 sequence (P30988 25-474)
T2 sequence (O60896 24-148 partner): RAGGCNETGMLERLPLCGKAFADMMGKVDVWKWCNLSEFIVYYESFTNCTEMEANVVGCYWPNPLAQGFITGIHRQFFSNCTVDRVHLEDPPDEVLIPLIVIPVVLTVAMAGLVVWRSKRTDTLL

[4] = biological target: T3, rat amylin 3(a) receptor (rat calcitonin(a) receptor + rat RAMP3) (Rattus norvegicus, UniProt P32214+Q9JJ73); experiment: Assay (II)b functional cAMP FlashPlate assay, rat amylin receptor; assay type: cell-based; conditions: Table 11
T3 construct: expressed in transfected cells; host or cells: BHK tk'ts 13
T3 sequence (P32214 25-479 isoform P32214-2 limits assumed): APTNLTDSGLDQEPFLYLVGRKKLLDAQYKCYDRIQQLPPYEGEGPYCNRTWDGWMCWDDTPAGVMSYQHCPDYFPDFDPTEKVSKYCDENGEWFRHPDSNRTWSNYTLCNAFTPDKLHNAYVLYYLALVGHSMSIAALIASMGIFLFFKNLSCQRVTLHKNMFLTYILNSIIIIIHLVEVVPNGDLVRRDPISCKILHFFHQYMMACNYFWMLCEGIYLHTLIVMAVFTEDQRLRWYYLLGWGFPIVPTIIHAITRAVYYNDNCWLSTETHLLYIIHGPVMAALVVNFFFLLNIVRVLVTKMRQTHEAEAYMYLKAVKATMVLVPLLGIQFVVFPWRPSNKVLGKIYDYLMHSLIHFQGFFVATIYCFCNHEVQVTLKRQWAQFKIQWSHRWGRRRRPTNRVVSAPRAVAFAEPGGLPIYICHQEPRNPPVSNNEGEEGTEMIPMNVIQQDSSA
T3 sequence (Q9JJ73 23-147 partner): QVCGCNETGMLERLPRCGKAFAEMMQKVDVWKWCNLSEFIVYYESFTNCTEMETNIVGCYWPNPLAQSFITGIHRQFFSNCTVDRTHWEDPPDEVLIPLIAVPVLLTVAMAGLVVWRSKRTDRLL
Summary of the method: (§1)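 BHK tk'ts 13 cells transiently transfected with rat calcitonin(a) receptor, alone or with rat RAMP3 (amylin 3(a)), were stimulated 24 hours later with sample for 30 min in buffer containing IBMX. cAMP measured by competitive radioactive FlashPlate assay, scintillation read after 3 h detection incubation.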

[5] = biological target: T4, rat calcitonin (a) receptor (Rattus norvegicus, UniProt P32214); experiment: Assay (II)b functional cAMP FlashPlate assay, rat calcitonin receptor; assay type: cell-based; conditions: Table 11; read-out: CTa receptor rat EC50
T4 construct: expressed in transfected cells; host or cells: BHK tk'ts 13
T4 sequence (P32214 25-479 isoform P32214-2 limits assumed): T3 sequence (P32214 25-479 isoform P32214-2 limits assumed)
Summary of the method: as §1

[6] = bistrispropane buffer, pH 6, pH 6.0, read-out: Solubility pH 6.0
[7] = bistrispropane buffer, pH 6.5, pH 6.5, read-out: Solubility pH 6.5
[8] = bistrispropane buffer, pH 7, pH 7.0, read-out: Solubility pH 7.0
[9] = bistrispropane buffer, pH 7.5, pH 7.5, read-out: Solubility pH 7.5
[10] = bistrispropane buffer, pH 8, pH 8.0, read-out: Solubility pH 8.0
[11] = glycylglycine buffer, pH 3, pH 3.0, read-out: Solubility pH 3.0
[12] = glycylglycine buffer, pH 4, pH 4.0, 18 hours at room temperature, Table 2, read-out: Solubility pH 4.0
[13] = glycylglycine buffer, pH 4, pH 4.0, read-out: Solubility pH 4.0
[14] = glycylglycine buffer, pH 5, pH 5.0, read-out: Solubility pH 5.0
[15] = bistrispropane buffer, pH 7, pH 7.0, 18 hours at room temperature, Table 3, read-out: Solubility pH 7.0

solubility at 18 h [1, 6] [µM] | solubility at 18 h [1, 7] [µM] | solubility at 18 h [1, 8] [µM] | solubility at 18 h [1, 9] [µM] | solubility at 18 h [1, 10] [µM] | solubility at 18 h [1, 11] [µM] | solubility at 18 h [1, 12] [µM] | solubility at 18 h [1, 13] [µM] | solubility at 18 h [1, 14] [µM] | EC50 [2] [nM] | EC50 [3] [nM] | EC50 [4] [nM] | EC50 [5] [nM] | solubility at 18 h [1, 15] [µM] | solubility at 18 h ([1]; bistrispropane buffer, pH 7, pH 7.0, Table 8, read-out: Solubility pH 7.0) [µM] | Structure (SMILES)
> 200 | 57 (≈ 273 µg/mL) | 2 (≈ 9.56 µg/mL) | 1 (≈ 4.78 µg/mL) | 3 (≈ 14.3 µg/mL) | > 200 | > 200 | > 200 | > 200 | 0.157 | 0.0985 | 0.261 | 1.29 |  |  | CC[C@H](C)[C@H](NC(=O)[C@@H]1CCCN1C(=O)CNC(=O)[C@H](Cc1ccccc1)NC(=O)[C@H](CC(N)=O)NC(=O)[C@H](CC(N)=O)NC(=O)[C@H](CO)NC(=O)[C@H](CO)NC(=O)[C@H](Cc1c[nH]cn1)NC(=O)[C@H](Cc1c[nH]cn1)NC(=O)[C@H](CC(C)C)NC(=O)[C@H](Cc1ccccc1)NC(=O)[C@H](CCC(=O)O)NC(=O)[C@H](C)NC(=O)[C@H](CC(C)C)NC(=O)[C@H](CCCNC(=N)N)NC(=O)[C@H](CCC(N)=O)NC(=O)[C@@H](NC(=O)[C@H](C)NC(=O)[C@@H]1CSSC[C@H](NC(=O)[C@H](Cc2c[nH]cn2)NC(=O)[C@H](Cc2c[nH]cn2)NC(=O)[C@H](Cc2c[nH]cn2)NC(=O)CC[C@H](NC(=O)CCCCCCCCCCCCCCCCCCC(=O)O)C(=O)O)C(=O)N[C@@H](CCCNC(=N)N)C(=O)N[C@@H]([C@@H](C)O)C(=O)N[C@@H](C)C(=O)N[C@@H]([C@@H](C)O)C(=O)N1)[C@@H](C)O)C(=O)N[C@@H](CC(C)C)C(=O)N1CCC[C@H]1C(=O)N1CCC[C@H]1C(=O)N[C@H](C(=O)N[C@@H](CC(N)=O)C(=O)N[C@H](C(=O)NCC(=O)N[C@@H](CO)C(=O)N[C@@H](CC(N)=O)C(=O)N[C@H](C(=O)N[C@@H](Cc1ccc(O)cc1)C(N)=O)[C@@H](C)O)C(C)C)[C@@H](C)O [Example 22, N-alpha-[(S)-4-Carboxy-4-(19-carboxynonadecanoylamino)butyryl]-His-His-[His1,Arg3,Glu14,His17]-pramlintide] ({C20 diacid-γGlu}-HHHCRTATCATQRLAEFLHHSSNNFGPILPPTNVGSNTY-NH2; disulfide 4-9 (inferred))
> 200 | 174 (≈ 775 µg/mL) | 160 (≈ 713 µg/mL) | > 200 | > 200 | > 200 | > 200 | > 200 | > 200 | 0.107 | 0.121 | 0.188 | 0.539 | 160 (≈ 713 µg/mL) |  | CC[C@H](C)[C@H](NC(=O)[C@@H]1CCCN1C(=O)CNC(=O)[C@H](Cc1ccccc1)NC(=O)[C@H](CC(N)=O)NC(=O)[C@H](CC(N)=O)NC(=O)[C@H](CO)NC(=O)[C@H](CO)NC(=O)[C@H](Cc1c[nH]cn1)NC(=O)[C@H](Cc1c[nH]cn1)NC(=O)[C@H](CC(C)C)NC(=O)[C@H](Cc1ccccc1)NC(=O)[C@H](CCC(=O)O)NC(=O)[C@H](C)NC(=O)[C@H](CC(C)C)NC(=O)[C@H](CCCNC(=N)N)NC(=O)[C@H](CCC(N)=O)NC(=O)[C@@H](NC(=O)[C@H](C)NC(=O)[C@@H]1CSSC[C@H](NC(=O)[C@H](CCCCN)NC(=O)CC[C@H](NC(=O)CCCCCCCCCCCCCCCCCCC(=O)O)C(=O)O)C(=O)N[C@@H](CC(N)=O)C(=O)N[C@@H]([C@@H](C)O)C(=O)N[C@@H](C)C(=O)N[C@@H]([C@@H](C)O)C(=O)N1)[C@@H](C)O)C(=O)N[C@@H](CC(C)C)C(=O)N1CCC[C@H]1C(=O)N1CCC[C@H]1C(=O)N[C@H](C(=O)N[C@@H](CC(N)=O)C(=O)N[C@H](C(=O)NCC(=O)N[C@@H](CO)C(=O)N[C@@H](CC(N)=O)C(=O)N[C@H](C(=O)N[C@@H](Cc1ccc(O)cc1)C(N)=O)[C@@H](C)O)C(C)C)[C@@H](C)O [Example 27, N-alpha-[(S)-4-Carboxy-4-(19-carboxynonadecanoylamino)butyryl]-[Glu14,His17]-pramlintide] ({C20 diacid-γGlu}-KCNTATCATQRLAEFLHHSSNNFGPILPPTNVGSNTY-NH2; disulfide 2-7 (inferred))
> 200 | > 200 | > 200 | > 200 | > 200 | > 200 | > 200 | > 200 | > 200 | 1.07 | 0.172 | 0.281 | 17.6 | > 200 | > 200 | CC[C@H](C)[C@H](NC(=O)[C@@H]1CCCN1C(=O)CNC(=O)[C@H](Cc1ccccc1)NC(=O)[C@H](CC(N)=O)NC(=O)[C@H](CC(N)=O)NC(=O)[C@H](CO)NC(=O)[C@H](CO)NC(=O)[C@H](Cc1c[nH]cn1)NC(=O)[C@H](CCCNC(=N)N)NC(=O)[C@H](CC(C)C)NC(=O)[C@H](Cc1ccccc1)NC(=O)[C@H](CCC(=O)O)NC(=O)[C@H](C)NC(=O)[C@H](CC(C)C)NC(=O)[C@H](CCCNC(=N)N)NC(=O)[C@H](CCC(N)=O)NC(=O)[C@@H](NC(=O)[C@H](C)NC(=O)[C@@H]1CSSC[C@H](NC(=O)[C@H](CCCCN)NC(=O)[C@H](CCC(=O)O)NC(=O)CC[C@H](NC(=O)CCCCCCCCCCCCCCCCC(=O)O)C(=O)O)C(=O)N[C@@H](CC(N)=O)C(=O)N[C@@H]([C@@H](C)O)C(=O)N[C@@H](C)C(=O)N[C@@H]([C@@H](C)O)C(=O)N1)[C@@H](C)O)C(=O)N[C@@H](CC(C)C)C(=O)N1CCC[C@H]1C(=O)N1CCC[C@H]1C(=O)N[C@H](C(=O)N[C@@H](CC(N)=O)C(=O)N[C@H](C(=O)NCC(=O)N[C@@H](CO)C(=O)N[C@@H](Cc1c[nH]cn1)C(=O)N[C@H](C(=O)N[C@@H](Cc1ccc(O)cc1)C(N)=O)[C@@H](C)O)C(C)C)[C@@H](C)O [Example 62, N-alpha-[(S)-4-Carboxy-4-(17-carboxyheptadecanoylamino)butyryl]-Glu-[Glu14,Arg17,His35]-pramlintide] ({C18 diacid-γGlu}-EKCNTATCATQRLAEFLRHSSNNFGPILPPTNVGSHTY-NH2; disulfide 3-8 (inferred); C-terminus assumed)

From patent publication US8722849B2, “Polypeptides” (Novo Nordisk A/S, priority 2011, dated 2014)
